From ChEMBL document CHEMBL4425114, “Development of Novel Alkoxyisoxazoles as Sigma-1 Receptor Antagonists with Antinociceptive Efficacy” (J Med Chem, 2016)
Active and inactive are the calls of the source. No cut-off for these calls is given here.

What was measured:
[1] = target: Sigma non-opioid intracellular receptor 1 (Rattus norvegicus) (UniProt Q9R0C9); assay: Displacement of [3H]-pentazocine from rat brain sigma1 receptor at 10 uM by PDSP assay
[2] = target: T1, Sigma intracellular receptor 2 (Rattus norvegicus, UniProt Q5U3Y7); assay: Displacement of [3H]DTG from rat brain sigma2 receptor by PDSP assay
T1 sequence (Q5U3Y7 whole entry): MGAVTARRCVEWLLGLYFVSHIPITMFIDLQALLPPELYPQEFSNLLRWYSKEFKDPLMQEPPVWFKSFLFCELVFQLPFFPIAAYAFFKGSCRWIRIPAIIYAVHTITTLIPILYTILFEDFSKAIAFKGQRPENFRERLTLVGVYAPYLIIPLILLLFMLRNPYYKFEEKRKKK

[3] = target: T2, Sigma intracellular receptor 2 (Rattus norvegicus) (UniProt Q5U3Y7); assay: Displacement of [3H]DTG from rat brain sigma2 receptor at 10 uM by PDSP assay
T2 sequence (whole entry): T1 sequence (Q5U3Y7 whole entry)

[4] = target: Sigma non-opioid intracellular receptor 1 (Rattus norvegicus, UniProt Q9R0C9); assay: Displacement of [3H]-pentazocine from rat brain sigma1 receptor by PDSP assay
Sigma non-opioid intracellular receptor 1, sequence (Q9R0C9 whole entry): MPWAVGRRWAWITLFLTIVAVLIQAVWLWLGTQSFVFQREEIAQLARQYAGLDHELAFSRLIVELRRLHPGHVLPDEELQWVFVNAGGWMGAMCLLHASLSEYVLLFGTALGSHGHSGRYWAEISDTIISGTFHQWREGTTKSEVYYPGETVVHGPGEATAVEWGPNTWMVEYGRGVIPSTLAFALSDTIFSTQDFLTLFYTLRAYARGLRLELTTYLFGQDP

[5] = target: Sigma non-opioid intracellular receptor 1 (Cavia porcellus) (UniProt Q60492); assay: Binding affinity to sigma1 receptor form guinea pig brain membrane in presence of phenytoin […]
Sigma non-opioid intracellular receptor 1 (Cavia porcellus), sequence (Q60492 whole entry): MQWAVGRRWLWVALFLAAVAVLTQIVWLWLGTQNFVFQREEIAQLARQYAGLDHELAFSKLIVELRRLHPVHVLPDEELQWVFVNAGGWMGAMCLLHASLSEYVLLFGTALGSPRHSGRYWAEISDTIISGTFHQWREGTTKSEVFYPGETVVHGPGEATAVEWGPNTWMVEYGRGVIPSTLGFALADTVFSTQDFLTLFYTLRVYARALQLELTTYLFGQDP

[6] = Permeability of the compound after 18 hrs by PAMPA assay; type: ADME; conditions: read-out: permeability
[7] = target: T3, Sodium-dependent serotonin transporter (Homo sapiens, UniProt P31645); conditions: HEK293, at 10 µM
Target sequence in this assay (P31645 whole entry, looked up): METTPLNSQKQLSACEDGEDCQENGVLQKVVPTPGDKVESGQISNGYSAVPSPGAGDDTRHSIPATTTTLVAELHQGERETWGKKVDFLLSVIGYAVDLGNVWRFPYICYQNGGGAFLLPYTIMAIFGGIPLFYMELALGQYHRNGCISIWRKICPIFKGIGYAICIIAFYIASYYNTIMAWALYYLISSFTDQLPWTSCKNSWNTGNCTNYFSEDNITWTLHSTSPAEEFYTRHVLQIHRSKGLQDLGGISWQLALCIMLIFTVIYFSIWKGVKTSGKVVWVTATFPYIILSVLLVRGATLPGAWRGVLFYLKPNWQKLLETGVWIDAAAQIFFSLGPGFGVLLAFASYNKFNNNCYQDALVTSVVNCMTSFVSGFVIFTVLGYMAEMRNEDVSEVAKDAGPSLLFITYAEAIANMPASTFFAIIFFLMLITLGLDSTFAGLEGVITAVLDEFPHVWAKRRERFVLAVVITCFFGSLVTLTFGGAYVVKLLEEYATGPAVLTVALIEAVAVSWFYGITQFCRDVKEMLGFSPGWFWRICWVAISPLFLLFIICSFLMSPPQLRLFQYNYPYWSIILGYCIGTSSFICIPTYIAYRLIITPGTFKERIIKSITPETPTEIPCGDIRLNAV
Description: Displacement of [3H]citalopram from human SERT expressed in HEK293 cells at 10 uM measured after 30 mins

[8] = target: Sodium-dependent noradrenaline transporter (Homo sapiens, UniProt P23975); assay: Displacement of [3H]nisoxetine from human NET expressed in HEK293 cells measured after 30 mins; type: cell-based
Sodium-dependent noradrenaline transporter, sequence (P23975 whole entry): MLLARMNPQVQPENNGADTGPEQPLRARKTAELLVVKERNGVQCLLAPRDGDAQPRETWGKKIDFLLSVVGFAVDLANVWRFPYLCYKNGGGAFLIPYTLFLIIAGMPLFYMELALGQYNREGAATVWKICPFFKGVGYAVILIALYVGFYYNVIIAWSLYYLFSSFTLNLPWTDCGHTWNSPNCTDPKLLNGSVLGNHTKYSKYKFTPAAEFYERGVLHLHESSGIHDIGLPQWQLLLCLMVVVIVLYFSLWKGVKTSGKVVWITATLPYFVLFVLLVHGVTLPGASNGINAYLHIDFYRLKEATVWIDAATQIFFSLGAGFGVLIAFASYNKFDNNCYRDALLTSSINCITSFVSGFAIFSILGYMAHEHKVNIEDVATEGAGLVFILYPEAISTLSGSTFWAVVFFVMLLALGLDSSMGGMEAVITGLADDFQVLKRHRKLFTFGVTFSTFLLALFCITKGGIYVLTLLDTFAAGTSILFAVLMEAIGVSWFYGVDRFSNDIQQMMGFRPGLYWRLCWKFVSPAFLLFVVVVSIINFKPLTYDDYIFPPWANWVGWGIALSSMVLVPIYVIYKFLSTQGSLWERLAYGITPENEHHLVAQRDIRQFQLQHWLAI

[9] = target: T4, Sodium-dependent dopamine transporter (Homo sapiens, UniProt Q01959)
T4 sequence (Q01959 whole entry): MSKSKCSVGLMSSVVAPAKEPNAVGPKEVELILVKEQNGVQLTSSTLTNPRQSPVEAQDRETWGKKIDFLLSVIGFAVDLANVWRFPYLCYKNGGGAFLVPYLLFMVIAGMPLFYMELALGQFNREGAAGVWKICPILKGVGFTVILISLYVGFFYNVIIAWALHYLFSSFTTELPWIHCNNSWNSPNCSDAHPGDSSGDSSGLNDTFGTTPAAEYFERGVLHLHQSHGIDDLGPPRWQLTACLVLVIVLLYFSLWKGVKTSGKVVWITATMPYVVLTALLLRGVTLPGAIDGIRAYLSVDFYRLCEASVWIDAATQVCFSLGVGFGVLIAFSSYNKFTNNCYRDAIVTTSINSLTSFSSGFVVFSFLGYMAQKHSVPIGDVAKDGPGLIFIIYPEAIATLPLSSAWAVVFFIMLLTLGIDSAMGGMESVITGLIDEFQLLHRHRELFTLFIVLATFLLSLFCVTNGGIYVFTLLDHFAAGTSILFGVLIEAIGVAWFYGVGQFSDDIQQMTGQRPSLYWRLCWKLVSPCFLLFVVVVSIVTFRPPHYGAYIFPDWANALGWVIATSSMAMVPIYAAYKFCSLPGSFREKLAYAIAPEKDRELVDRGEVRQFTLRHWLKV
Description: Displacement of [3H]-WIN35428 from human DAT expressed in HEK293 cells measured after 30 mins

[10] = target: T3, Sodium-dependent serotonin transporter; assay: biochemical; type: cell-based, HEK293
Target sequence in this assay (P31645 whole entry): as the sequence (P31645 whole entry, looked up) above
Description: Displacement of [3H]citalopram from human SERT expressed in HEK293 cells measured after 30 mins

[11] = target: T4, Sodium-dependent dopamine transporter; assay: Displacement of [3H]-WIN35428 from human DAT expressed in HEK293 cells at 10 uM measured after 30 mins; type: cell-based
[12] = Toxicity in Kun Ming mouse assessed as decrease in rotarod latency at 40 mg/kg, ip measured after 60 to 120 mins by rotarod test relative to vehicle-treated control; type: organism-based; conditions: in vivo
Mus musculus = assay: Antinociceptive activity in Kun Ming mouse assessed as reduction in paw licking and flinching time at 80 mg/kg, ip administered 15 mins prior to formalin challenge measured up to 45 mins post formalin dosing relative to vehicle-treated control; type: functional, organism-based

Sigma non-opioid intracellular receptor 1 (Rattus norvegicus), sequence (Q9R0C9 whole entry): as the sequence (Q9R0C9 whole entry) above

Row | Compound | Ki [2] | Ki [4] | further results
1 | CN(C)CCOc1cc(COc2ccccc2)on1 | > 10000 nM | > 10000 nM | inhibition [1]: < 50%; inhibition [3]: < 50%
2 | CN(CCOc1cc(COc2cccc(F)c2)on1)C1CCCCC1 | 24.5 nM | 0.5 nM | 
3 | CN(CCOc1cc(COc2cccc(Cl)c2)on1)C1CCCCC1 | 15.1 nM | 0.5 nM | 
4 | Cc1cccc(OCc2cc(OC[C@@H]3CCCN3)no2)c1 | 341 nM | 4 nM | 
5 | c1ccc(OCc2cc(N3CCOCC3)no2)cc1 | > 10000 nM | > 10000 nM | inhibition [1]: < 50%; inhibition [3]: < 50%
6 | COc1ccc(OCc2cc(OC[C@@H]3CCCN3)no2)cc1 | 675 nM | 210 nM | 
7 | Clc1ccc(OCc2cc(OC[C@@H]3CCCN3)no2)cc1 | 139 nM | 13 nM | 
8 | CNCCOc1cc(COc2ccccc2)on1 | > 10000 nM | 80.8 nM | inhibition [3]: < 50%
9 | Clc1cccc(OCc2cc(OC[C@@H]3CCCN3)no2)c1.O=C(O)C(F)(F)F | > 10000 nM | 2.6 nM | Activity [5]: inactive; inhibition [3]: < 50%; Papp at 18 h [6]: 2 to 4 ×10⁻⁶ cm/s
10 | c1ccc(SCc2cc(OC[C@@H]3CCCN3)no2)cc1 | 1030 nM | 65.4 nM | 
11 | Fc1ccccc1OCc1cc(OC[C@@H]2CCCN2)no1 | 396 nM | 6 to 6.1 nM | inhibition [1]: > 50%; inhibition [7]: < 50%; Ki [8]: 1080 nM; Ki [9]: > 10000 nM; Ki [10]: > 10000 nM; inhibition [11]: < 50%
12 | Fc1ccc(C(OCCN2CCN(CCCc3ccccc3)CC2)c2ccc(F)cc2)cc1 |  |  | inhibition [11]: > 50%
13 | NCCCOc1cc(COc2ccccc2)on1 | > 10000 nM | 2310 nM | inhibition [3]: < 50%
14 | CC(C)C[C@H](CN)CC(=O)O [PREGABALIN] |  |  | Activity [12]: Toxic
15 | O=C(Nc1ccccc1)c1cc(OC[C@@H]2CCCN2)no1 | > 10000 nM | 130 nM | inhibition [3]: < 50%
16 | Brc1cccc(OCc2cc(OC[C@@H]3CCCN3)no2)c1 | 85.9 nM | 3.2 nM | 
17 | O=C(c1cc(OC[C@@H]2CCCN2)no1)N1CCc2ccccc21 | > 10000 nM | 13.9 nM | inhibition [3]: < 50%
18 | Cl.Fc1cccc(OCc2cc(OC[C@@H]3CCCN3)no2)c1 | 277 nM | 1.4 nM | Activity [5]: inactive; Papp at 18 h [6]: 2 to 4 ×10⁻⁶ cm/s
19 | O=C(Nc1ccccc1)OCc1cc(OC[C@@H]2CCCN2)no1 | > 10000 nM | 299 nM | inhibition [3]: < 50%
20 | FC(F)(F)c1ccc(OCc2cc(OC[C@@H]3CCCN3)no2)cc1 | 91.7 nM | 13.3 nM | 
21 | CN(CCOc1cc(COc2ccccc2)on1)C1CCC1 | 307 nM | 1.8 nM | Activity [5]: inactive
22 | FC(F)(F)c1cccc(OCc2cc(OC[C@@H]3CCCN3)no2)c1 | 88 nM | 6.6 nM | 
23 | Cl.c1ccc(OCc2cc(N3CCNCC3)no2)cc1 | 221 nM | 5.3 nM | inhibition [1]: > 50%; inhibition [7]: < 50%; Ki [8]: 163 nM; Ki [9]: 497 nM; Ki [10]: > 10000 nM; Papp at 18 h [6]: 7.36 ×10⁻⁶ cm/s; inhibition [11]: > 50%
24 | CN(CCOc1cc(COc2cccc(Cl)c2)on1)CC1CC1 | 123 nM | 1.1 nM | 
25 | c1ccc(OCc2cc(OCC3CCNCC3)no2)cc1 | 284 nM | 356 nM | 

Row | Compound | Ki [2] | Ki [4] | further results
26 | Fc1ccc(OCc2cc(OC[C@@H]3CCCN3)no2)cc1 | 471 nM | 4.4 nM | 
27 | COc1cccc(OCc2cc(OC[C@@H]3CCCN3)no2)c1 | > 10000 nM | 31.1 nM | inhibition [3]: < 50%
28 | CN1CCN(c2cc(COc3ccccc3)on2)CC1 | 2200 nM | 63.9 nM | 
29 | O=C(Oc1ccccc1)c1cc(OC[C@@H]2CCCN2)no1 | > 10000 nM | > 10000 nM | inhibition [1]: < 50%; inhibition [3]: < 50%
30 | CN1CCC[C@H]1COc1cc(COc2ccccc2)on1.Cl | 665 nM | 3.4 nM | Papp at 18 h [6]: 2 to 4 ×10⁻⁶ cm/s
31 | CN(CCOc1cc(COc2cccc(F)c2)on1)CC1CC1 | 314 nM | 0.9 nM | 
32 | CN1CCC[C@@H]1COc1cc(COc2ccccc2)on1 | 411 nM | 23.1 nM | 
33 | CN1CCC[C@H]1COc1cc(COc2cccc(Cl)c2)on1 | 371 nM | 1.4 nM | 
34 | CCN(C)CCOc1cc(COc2ccccc2)on1 | 820 nM | 18.4 nM | 
35 | Clc1cccc(OCc2cc(N3CCNCC3)no2)c1 | 687 nM | 36.5 nM | 
36 | c1ccc(OCc2cc(OC[C@@H]3CCCN3)no2)cc1 |  |  | Activity [5]: inactive; Papp at 18 h [6]: 2 to 4 ×10⁻⁶ cm/s
37 | Brc1ccc(OCc2cc(OC[C@@H]3CCCN3)no2)cc1 | 137 nM | 18.3 nM | 
38 | Clc1ccccc1OCc1cc(OC[C@@H]2CCCN2)no1 | 165 nM | 2.7 nM | inhibition [1]: > 50%; inhibition [7]: > 50%; Ki [8]: 2110 nM; Ki [9]: > 10000 nM; Ki [10]: 2950 nM; inhibition [11]: < 50%
39 | CN(CCOc1cc(COc2ccccc2)on1)C1CCCC1 | 73.7 nM | 0.5 nM | 
40 | NCCOc1cc(COc2ccccc2)on1 | > 10000 nM | 63.9 nM | inhibition [3]: < 50%
41 | CCNCCOc1cc(COc2ccccc2)on1 | 987 nM | 3.7 nM | 
42 | CN1CCC[C@H]1COc1cc(COc2cccc(F)c2)on1 | 687 nM | 0.7 nM | 
43 | Cc1cc(OCCN2CCOCC2)nn1-c1ccc2ccccc2c1 |  |  | Activity (Mus musculus): Active; Activity [5]: inactive; Papp at 18 h [6]: 2 to 4 ×10⁻⁶ cm/s
44 | CN1CCC(COc2cc(COc3ccccc3)on2)CC1 | 216 nM | 96.4 nM | 
45 | c1ccc(OCc2cc(N3CCCCC3)no2)cc1 | > 10000 nM | > 10000 nM | inhibition [1]: < 50%; inhibition [3]: < 50%
46 | c1ccc(OCc2cc(OCCN3CCOCC3)no2)cc1 | > 10000 nM | 403 nM | inhibition [3]: < 50%
47 | c1ccc(OCc2cc(OC[C@H]3CCCN3)no2)cc1 | 508 nM | 37.4 nM | 
48 | c1ccc2cc(OCc3cc(OC[C@@H]4CCCN4)no3)ccc2c1 | 153 nM | 36.6 nM | 
49 | CN(CCOc1cc(COc2ccccc2)on1)C1CCCCC1 | 18.7 nM | 0.3 nM | inhibition [1]: > 50%; inhibition [7]: < 50%; Ki [8]: > 10000 nM; Ki [9]: > 10000 nM; Ki [10]: > 10000 nM; inhibition [11]: < 50%
